From PubChem BioAssay AID226 (DTP/NCI, 2004) come the findings set out here.

For this test, the system named is B6C3F1 mice, intracerebral ependymoblastoma, median survival T/C. Briefly: NCI In Vivo Anticancer Drug Screen. Data for tumor model Ependymoblastoma (intracerebral) in B6C3F1 mice. Conditions: endpoint: median survival time, higher = longer survival. Here is the method:
The antitumor activity of compounds was measured in mice bearing transplantable tumors. Survival or tumor size were measured and the results are expressed as the measurement made in the treated group (T) divided by the measurement made in the vehicle treated control group (C). The tumor model used in this assay is Ependymoblastoma (intracerebral) in B6C3F1 mice

Where “and” joins values, the source holds several entries; their conditions need not be identical. Equal entries are not always repeated. Toxic doses and inconclusive results are not listed.

Take `COc1ccc2c(c1OC(C)=O)-c1cc(O)cc3c1C(C2)N(C(=O)CN(CCCl)CCCl)CC3` (stereo unspecified): the T/C (dose: 3.12 mg/kg/injection, schedule: Q01DX005 (ip), vehicle: saline with Tween-80) was 96 % of control; the T/C (dose: 6.25 mg/kg/injection, schedule: Q01DX005 (ip), vehicle: saline with Tween-80) is 102 % of control; the T/C (dose: 12.5 mg/kg/injection, schedule: Q01DX005 (ip), vehicle: saline with Tween-80) was 105 % of control.

Turning to `C#C[C@]1(O)CC[C@H]2[C@@H]3CCc4cc(O)ccc4[C@H]3CC[C@@]21C`, the T/C (dose: 8.0 mg/kg/injection, schedule: Q01DX005 (ip), vehicle: Klucel (hydroxypropylcellulose) (HPC)) was 97 % of control and 103 % of control; the T/C (dose: 16.0 mg/kg/injection, schedule: Q01DX005 (ip), vehicle: Klucel (hydroxypropylcellulose) (HPC)) was 98 % of control and 109 % of control; the T/C (dose: 32.0 mg/kg/injection, schedule: Q01DX005 (ip), vehicle: Klucel (hydroxypropylcellulose) (HPC)) is 100 % of control and 106 % of control; the T/C (dose: 64.0 mg/kg/injection, schedule: Q01DX005 (ip), vehicle: Klucel (hydroxypropylcellulose) (HPC)) was 97 % of control and 119 % of control; the T/C (dose: 128.0 mg/kg/injection, schedule: Q01DX005 (ip), vehicle: Klucel (hydroxypropylcellulose) (HPC)) was 104 % of control and 107 % of control; the T/C (dose: 256.0 mg/kg/injection, schedule: Q01DX005 (ip), vehicle: Klucel (hydroxypropylcellulose) (HPC)) was 104 % of control and 124 % of control. The T/C (dose: 512.0 mg/kg/injection, schedule: Q01DX005 (ip), vehicle: Klucel (hydroxypropylcellulose) (HPC)) is 109 % of control and 111 % of control.

On to `CSc1nc(N)nc2c1ncn2C1OC(CO)C(O)C1O` (stereo unspecified), for which the T/C reads like this: (dose: 50.0 mg/kg/injection, schedule: Q01DX005 (ip), vehicle: suspension in saline) 108 % of control; (dose: 100.0 mg/kg/injection, schedule: Q01DX005 (ip), vehicle: suspension in saline) 109 % of control; (dose: 200.0 mg/kg/injection, schedule: Q01DX005 (ip), vehicle: suspension in saline) 100 % of control; (dose: 400.0 mg/kg/injection, schedule: Q01DX005 (ip), vehicle: suspension in saline) 96 % of control.

Turning to `O=P(NC12CC3CC(CC(C3)C1)C2)(N1CC1)N1CC1`, the T/C runs as follows: (dose: 2.25 mg/kg/injection, schedule: Q01DX005 (ip), vehicle: Klucel (hydroxypropylcellulose) (HPC)) 108 % of control and 113 % of control; (dose: 4.5 mg/kg/injection, schedule: Q01DX005 (ip), vehicle: Klucel (hydroxypropylcellulose) (HPC)) 111 % of control and 117 % of control; (dose: 9.0 mg/kg/injection, schedule: Q01DX005 (ip), vehicle: Klucel (hydroxypropylcellulose) (HPC)) 123 % of control; (dose: 18.0 mg/kg/injection, schedule: Q01DX005 (ip), vehicle: Klucel (hydroxypropylcellulose) (HPC)) 123 % of control.

Regarding `CN1c2c(nc(N)[nH]c2=O)NCC1CCNc1ccc(C(=O)NC(CCC(=O)O)C(=O)O)cc1` (stereo unspecified), the T/C is 114 % of control (dose: 50.0 mg/kg/injection, schedule: Q#ADX018 (ip), vehicle: saline); 111 % of control and 114 % of control (dose: 100.0 mg/kg/injection, schedule: Q01DX009 (ip), vehicle: saline); 122 % of control (dose: 100.0 mg/kg/injection, schedule: Q12HX018 (ip), vehicle: saline); 195 % of control (dose: 100.0 mg/kg/injection, schedule: Q#A X018 (ip), vehicle: saline); 114 % of control (dose: 100.0 mg/kg/injection, schedule: Q#ADX018 (ip), vehicle: saline); 105 % of control and 115 % of control (dose: 200.0 mg/kg/injection, schedule: Q01DX009 (ip), vehicle: saline). Further, the T/C (dose: 200.0 mg/kg/injection, schedule: Q#A X018 (ip), vehicle: saline) was 216 % of control; the T/C (dose: 200.0 mg/kg/injection, schedule: Q#ADX018 (ip), vehicle: saline) is 119 % of control; the T/C (dose: 400.0 mg/kg/injection, schedule: Q01DX009 (ip), vehicle: saline) was 109 % of control; the T/C (dose: 400.0 mg/kg/injection, schedule: Q#A X018 (ip), vehicle: saline) was 190 % of control; the T/C (dose: 800.0 mg/kg/injection, schedule: Q01DX009 (ip), vehicle: saline) is 121 % of control and 122 % of control; the T/C (dose: 1600.0 mg/kg/injection, schedule: Q01DX009 (ip), vehicle: saline) is 120 % of control.

On to `NC(=S)c1cn(C2OC(CO)C(O)C2O)c2ncnc(N)c12` (stereo unspecified), for which the T/C was 94 % of control (dose: 1.88 mg/kg/injection, schedule: Q01DX005 (ip), vehicle: suspension in saline); 97 % of control (dose: 3.75 mg/kg/injection, schedule: Q01DX005 (ip), vehicle: suspension in saline); 108 % of control (dose: 7.5 mg/kg/injection, schedule: Q01DX005 (ip), vehicle: suspension in saline).

As for `CCC(C)N(C)/N=N/c1nc[nH]c1C(N)=O` (stereo unspecified), the T/C was 151 % of control (dose: 32.0 mg/kg/injection, schedule: Q01DX005 (ip), vehicle: saline with Tween-80); 153 % of control (dose: 64.0 mg/kg/injection, schedule: Q01DX005 (ip), vehicle: saline with Tween-80); 153 % of control (dose: 128.0 mg/kg/injection, schedule: Q01DX005 (ip), vehicle: saline with Tween-80).

Take `Nc1ccn(C2OC(COP(=O)(O)O)C(O)C2O)c(=O)n1` (stereo unspecified): the T/C (dose: 16.0 mg/kg/injection, schedule: Q01DX005 (ip), vehicle: saline) was 96 % of control; the T/C (dose: 32.0 mg/kg/injection, schedule: Q01DX005 (ip), vehicle: saline) was 95 % of control; the T/C (dose: 64.0 mg/kg/injection, schedule: Q01DX005 (ip), vehicle: saline) was 107 % of control; the T/C (dose: 128.0 mg/kg/injection, schedule: Q01DX005 (ip), vehicle: saline) is 112 % of control.

Take `CS(C)=O`: the T/C by setting is: (dose: 500.0 mg/kg/injection, schedule: Q01DX005 (ip), vehicle: water) 103 % of control; (dose: 1000.0 mg/kg/injection, schedule: Q01DX005 (ip), vehicle: saline) 98 % of control; (dose: 1000.0 mg/kg/injection, schedule: Q01DX005 (ip), vehicle: water) 97 % of control; (dose: 2000.0 mg/kg/injection, schedule: Q01DX001 (ip), vehicle: saline) 96 % of control and 98 % of control and 100 % of control; (dose: 2000.0 mg/kg/injection, schedule: Q01DX005 (ip), vehicle: saline) 109 % of control; (dose: 2000.0 mg/kg/injection, schedule: Q01DX005 (ip), vehicle: water) 103 % of control. Also, the T/C is 102 % of control (dose: 2.0 grams/kg/injection, schedule: Q01DX001 (ip), vehicle: saline); 91 % of control and 95 % of control and 103 % of control (dose: 4000.0 mg/kg/injection, schedule: Q01DX001 (ip), vehicle: saline); 103 % of control (dose: 4000.0 mg/kg/injection, schedule: Q01DX005 (ip), vehicle: saline); 105 % of control (dose: 4000.0 mg/kg/injection, schedule: Q01DX005 (ip), vehicle: water); 95 % of control (dose: 4.0 grams/kg/injection, schedule: Q01DX001 (ip), vehicle: saline); 101 % of control (2×) and 107 % of control (dose: 8000.0 mg/kg/injection, schedule: Q01DX001 (ip), vehicle: saline). Moreover, the T/C reads like this: (dose: 8000.0 mg/kg/injection, schedule: Q01DX005 (ip), vehicle: saline) 103 % of control; (dose: 8000.0 mg/kg/injection, schedule: Q01DX005 (ip), vehicle: water) 98 % of control; (dose: 8.0 grams/kg/injection, schedule: Q01DX001 (ip), vehicle: saline) 99 % of control; (dose: 16000.0 mg/kg/injection, schedule: Q01DX001 (ip), vehicle: saline) 93 % of control.

On to `COC(=O)c1ccc(N=NN(C)C)cc1`, for which the T/C runs as follows: (dose: 8.0 mg/kg/injection, schedule: Q01DX005 (ip), vehicle: saline + alcohol) 114 % of control; (dose: 16.0 mg/kg/injection, schedule: Q01DX005 (ip), vehicle: saline + alcohol) 114 % of control; (dose: 128.0 mg/kg/injection, schedule: Q01DX005 (ip), vehicle: saline + alcohol) 160 % of control and 164 % of control; (dose: 256.0 mg/kg/injection, schedule: Q01DX005 (ip), vehicle: saline + alcohol) 100 % of control.

With `C/C(=C\c1ccccc1)[N+](=O)[O-]`, the T/C runs as follows: (dose: 3.12 mg/kg/injection, schedule: Q01DX005 (ip), vehicle: Klucel (hydroxypropylcellulose) (HPC)) 96 % of control; (dose: 6.25 mg/kg/injection, schedule: Q01DX005 (ip), vehicle: Klucel (hydroxypropylcellulose) (HPC)) 100 % of control; (dose: 12.5 mg/kg/injection, schedule: Q01DX005 (ip), vehicle: Klucel (hydroxypropylcellulose) (HPC)) 92 % of control; (dose: 25.0 mg/kg/injection, schedule: Q01DX005 (ip), vehicle: Klucel (hydroxypropylcellulose) (HPC)) 92 % of control; (dose: 50.0 mg/kg/injection, schedule: Q01DX005 (ip), vehicle: Klucel (hydroxypropylcellulose) (HPC)) 91 % of control; (dose: 100.0 mg/kg/injection, schedule: Q01DX005 (ip), vehicle: Klucel (hydroxypropylcellulose) (HPC)) 91 % of control.
